In PubChem BioAssay (NCI):
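Briefly, cells in 96-well plates were exposed to five compound concentrations for 48 h, and endpoints were estimated by linear interpolation. At the TGI there is no net growth.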

How the values were obtained:
Assay in all cases: DTP human tumour cell line panel, 48 h
NCI-H460 lung = test system: NCI-H460 lung
LOX IMVI melanoma = test system: LOX IMVI melanoma
HCC-2998 colon = test system: HCC-2998 colon
IGROV1 ovarian = test system: IGROV1 ovarian
UO-31 renal = test system: UO-31 renal
KM12 colon = test system: KM12 colon
SF-295 CNS = test system: SF-295 CNS
SK-MEL-2 melanoma = test system: SK-MEL-2 melanoma
T-47D breast = test system: T-47D breast
MOLT-4 leukemia = test system: MOLT-4 leukemia
SK-MEL-28 melanoma = test system: SK-MEL-28 melanoma
ACHN renal = test system: ACHN renal
BT-549 breast = test system: BT-549 breast
MALME-3M melanoma = test system: MALME-3M melanoma
MDA-MB-231 breast = test system: MDA-MB-231 breast
A549 NSCLC = test system: A549 NSCLC
SK-OV-3 ovarian = test system: SK-OV-3 ovarian
SNB-19 CNS = test system: SNB-19 CNS
NCI-H226 lung = test system: NCI-H226 lung
K-562 leukemia = test system: K-562 leukemia
HS 578T breast = test system: HS 578T breast
SR leukemia = test system: SR leukemia
PC-3 prostate = test system: PC-3 prostate
786-0 renal = test system: 786-0 renal
DU-145 prostate = test system: DU-145 prostate
OVCAR-3 ovarian = test system: OVCAR-3 ovarian
COLO 205 colon = test system: COLO 205 colon
NCI-H522 lung = test system: NCI-H522 lung
HOP-92 NSCLC = test system: HOP-92 NSCLC
OVCAR-5 ovarian = test system: OVCAR-5 ovarian
RXF 393 renal = test system: RXF 393 renal
RPMI-8226 leukemia = test system: RPMI-8226 leukemia
HCT-116 colon = test system: HCT-116 colon
SNB-75 CNS = test system: SNB-75 CNS
SK-MEL-5 melanoma = test system: SK-MEL-5 melanoma
A498 renal = test system: A498 renal
UACC-62 melanoma = test system: UACC-62 melanoma
NCI/ADR-RES ovarian = test system: NCI/ADR-RES ovarian
HL-60(TB) leukemia = test system: HL-60(TB) leukemia
CCRF-CEM leukemia = test system: CCRF-CEM leukemia
SF-268 CNS = test system: SF-268 CNS
HCT-15 colon = test system: HCT-15 colon
SW-620 colon = test system: SW-620 colon
OVCAR-8 ovarian = test system: OVCAR-8 ovarian
NCI-H23 lung = test system: NCI-H23 lung
UACC-257 melanoma = test system: UACC-257 melanoma
EKVX NSCLC = test system: EKVX NSCLC
U251 CNS = test system: U251 CNS
M14 melanoma = test system: M14 melanoma
OVCAR-4 ovarian = test system: OVCAR-4 ovarian
MDA-MB-435 = test system: MDA-MB-435
TK-10 renal = test system: TK-10 renal
HT29 colon = test system: HT29 colon
CAKI-1 renal = test system: CAKI-1 renal
HOP-62 NSCLC = test system: HOP-62 NSCLC

**Q.** Which TGI (NCI-H460 lung) does the source give for COC(=O)[C@](NC(=O)OCc1ccccc1)([C@@H](C)S(=O)c1ccc(C)cc1)C(F)(F)F (stereo not given in full) here?
**A.** Its TGI is over 100 µM.

**Q.** What about the TGI (LOX IMVI melanoma) of the same compound?
**A.** The TGI was over 100 µM.

**Q.** And the TGI (HCC-2998 colon)?
**A.** Its TGI is over 100 µM.

**Q.** What about the TGI (IGROV1 ovarian) of the same compound?
**A.** The TGI was over 100 µM.

**Q.** What about the TGI (UO-31 renal) of the same compound?
**A.** The TGI was 95.9 µM.

**Q.** And the TGI (KM12 colon)?
**A.** The TGI was over 100 µM.

**Q.** And the TGI (SF-295 CNS)?
**A.** Its TGI is over 100 µM.

**Q.** And the TGI (SK-MEL-2 melanoma)?
**A.** The TGI was 48.9 µM.

**Q.** What about the TGI (T-47D breast) of the same compound?
**A.** Its TGI is over 100 µM.

**Q.** And the TGI (MOLT-4 leukemia)?
**A.** The TGI was 70 µM.

**Q.** What about the TGI (SK-MEL-28 melanoma) of the same compound?
**A.** The TGI was over 100 µM.

**Q.** What about the TGI (ACHN renal) of the same compound?
**A.** The TGI was over 100 µM.

**Q.** And the TGI (BT-549 breast)?
**A.** Its TGI is 88.8 µM.

**Q.** What about the TGI (MALME-3M melanoma) of the same compound?
**A.** The TGI was over 100 µM.

**Q.** And the TGI (MDA-MB-231 breast)?
**A.** Its TGI is over 100 µM.

**Q.** What about the TGI (A549 NSCLC) of the same compound?
**A.** The TGI was over 100 µM.

**Q.** And the TGI (SK-OV-3 ovarian)?
**A.** The TGI was over 100 µM.

**Q.** And the TGI (SNB-19 CNS)?
**A.** Its TGI is over 100 µM.

**Q.** What about the TGI (NCI-H226 lung) of the same compound?
**A.** The TGI was over 100 µM.

**Q.** What about the TGI (K-562 leukemia) of the same compound?
**A.** Its TGI is over 100 µM.

**Q.** And the TGI (HS 578T breast)?
**A.** Its TGI is over 100 µM.

**Q.** And the TGI (SR leukemia)?
**A.** The TGI was 61.5 µM.

**Q.** And the TGI (PC-3 prostate)?
**A.** The TGI was over 100 µM.

**Q.** And the TGI (786-0 renal)?
**A.** The TGI was over 100 µM.

**Q.** What about the TGI (DU-145 prostate) of the same compound?
**A.** The TGI was over 100 µM.

**Q.** And the TGI (OVCAR-3 ovarian)?
**A.** The TGI was over 100 µM.

**Q.** What about the TGI (COLO 205 colon) of the same compound?
**A.** Its TGI is 64.7 µM.

**Q.** And the TGI (NCI-H522 lung)?
**A.** Its TGI is over 100 µM.

**Q.** And the TGI (HOP-92 NSCLC)?
**A.** The TGI was 96.4 µM.

**Q.** And the TGI (OVCAR-5 ovarian)?
**A.** Its TGI is over 100 µM.

**Q.** What about the TGI (RXF 393 renal) of the same compound?
**A.** Its TGI is 65.8 µM.

**Q.** What about the TGI (RPMI-8226 leukemia) of the same compound?
**A.** Its TGI is over 100 µM.

**Q.** What about the TGI (HCT-116 colon) of the same compound?
**A.** Its TGI is over 100 µM.

**Q.** And the TGI (SNB-75 CNS)?
**A.** The TGI was over 100 µM.

**Q.** What about the TGI (SK-MEL-5 melanoma) of the same compound?
**A.** The TGI was 33.1 µM.

**Q.** And the TGI (A498 renal)?
**A.** The TGI was 95.8 µM.

**Q.** And the TGI (UACC-62 melanoma)?
**A.** Its TGI is over 100 µM.

**Q.** What about the TGI (NCI/ADR-RES ovarian) of the same compound?
**A.** Its TGI is over 100 µM.

**Q.** And the TGI (HL-60(TB) leukemia)?
**A.** The TGI was 38.9 µM.

**Q.** And the TGI (CCRF-CEM leukemia)?
**A.** Its TGI is 92 µM.

**Q.** What about the TGI (SF-268 CNS) of the same compound?
**A.** Its TGI is over 100 µM.

**Q.** And the TGI (HCT-15 colon)?
**A.** The TGI was over 100 µM.

**Q.** And the TGI (SW-620 colon)?
**A.** The TGI was over 100 µM.

**Q.** What about the TGI (OVCAR-8 ovarian) of the same compound?
**A.** The TGI was over 100 µM.

**Q.** And the TGI (NCI-H23 lung)?
**A.** The TGI was 95.1 µM.

**Q.** And the TGI (UACC-257 melanoma)?
**A.** Its TGI is 86.6 µM.

**Q.** What about the TGI (EKVX NSCLC) of the same compound?
**A.** Its TGI is over 100 µM.

**Q.** And the TGI (U251 CNS)?
**A.** The TGI was over 100 µM.

**Q.** And the TGI (M14 melanoma)?
**A.** The TGI was over 100 µM.

**Q.** And the TGI (OVCAR-4 ovarian)?
**A.** The TGI was 89.2 µM.

**Q.** And the TGI (MDA-MB-435)?
**A.** The TGI was over 100 µM.

**Q.** What about the TGI (TK-10 renal) of the same compound?
**A.** The TGI was 70 µM.

**Q.** And the TGI (HT29 colon)?
**A.** Its TGI is 67 µM.

**Q.** What about the TGI (CAKI-1 renal) of the same compound?
**A.** The TGI was over 100 µM.

**Q.** And the TGI (HOP-62 NSCLC)?
**A.** Its TGI is over 100 µM.
